# Assay results taken from patent US6326386A, “Benzamide derivatives as thrombin inhibitors” (Glaxo Group Limited, priority 1995, dated 2001).
# Target: T1, human α-thrombin (Homo sapiens, UniProt P00734)
# T1 construct: human α-thrombin
# Assay: Inhibition of human α-thrombin in a chromogenic assay (N-p-tosyl-gly-pro-lys p-nitroanilide substrate)
# Type: biochemical
# Conditions: human α-thrombin 1 nM, substrate 100 μM, pH 7.4, room temperature, 405 nm; preincubation (zero or 15 mins) not given
# Experimental: All dilutions were made in a buffer consisting of: 50 mM HEPES, 150 mM NaCl, 5 mM CaCl2, 0.1% PEG and at pH 7.4. Briefly, the substrate (final conc. of 100 μM) was added to thrombin (final conc. of 1 nM) and the reaction monitored for 10 mins at 405 nm using a Biotek EL340 plate reader; the assay was performed at room temperature. To obtain IC50 s the data were analyzed using Kineticalc® with a 4-parameter curve fitting procedure to obtain the IC50 value.
# The compounds of the present invention are thrombin inhibitors. The results below illustrate the thrombin activity of a range of compounds of formula (I) using the previously described biological method: […]
row,IC50,Structure (SMILES)
1,8 nM,"Cc1cc(OCCNc2ccncc2)cc(C(=O)N(C)C2CCCCC2)c1 [Example 1, N-Cyclohexyl-3, N-dimethyl-5-[2-(pyridin-4-ylamino)-ethoxy]-benzamide]"
2,5 nM,"C=CCN(C(=O)c1cc(Cl)cc(OCCNc2ccncc2)c1)C1CCCC1 [Example 6, N-Allyl-3-chloro-N-cyclopentyl-5-[2-(pyridin-4-ylamino)-ethoxy]-benzamide]"
3,7 nM,"O=C(c1cc(Cl)cc(OCCNc2ccncc2)c1)N(CCCO)C1CCCC1 [Example 9, 3-Chloro-N-cyclopentyl-N-(3-hydroxy-propyl)-5-[2-(pyridin-4-ylamino)-ethoxy]-benzamide]"
4,15 nM,"O=C(c1cc(Cl)cc(OCCNc2ccncc2)c1)N(CCCN1CCOCC1)C1CCCC1 [Example 13, 3-Chloro-N-cyclopentyl-N-(3-morpholin-4-yl-propyl)-5-[2-(pyridin-4-ylamino)-ethoxy]-benzamide]"
5,14 nM,"CCOC(=O)CCCN(C(=O)c1cc(Cl)cc(OCCNc2ccncc2)c1)C1CCCC1 [Example 17, 4-({3-Chloro-5-[2-(pyridin-4-ylamino)-ethoxy]-benzoyl}-cyclopentyl-amino)-butyric acid ethyl ester]"
6,9 nM,"O=C(CCCN(C(=O)c1cc(Cl)cc(OCCNc2ccncc2)c1)C1CCCC1)N1CCCC1 [Example 20, 3-Chloro-N-cyclopentyl-N-(4-oxo-4-pyrrolidin-1-yl-butyl)-5-[2-(pyridin-4-ylamino)-ethoxy]-benzamide]"
7,62 nM,"CCCN(C(=O)c1cc(Cl)cc(OCCNc2ccncc2)c1)c1cc(F)cc(F)c1 [Example 29, 3-Chloro-N-(3,5-difluoro-phenyl)-N-propyl-5-[2-(pyridin-4-ylamino)-ethoxy]-benzamide]"
8,17 nM,"O=C(CCCN(C(=O)c1cc(Cl)cc(OCCNc2ccncc2)c1)c1ccccc1F)N1CCCC1 [Example 37, 3-Chloro-N-(2-fluoro-phenyl)-N-(4-oxo-4-pyrrolidin-1-yl-butyl)-5-[2-(pyridin-4-ylamino)-ethoxy]-benzamide]"
9,9 nM,"O=C(c1cc(Cl)cc(OCCNc2ccncc2)c1)N(CCCc1nnn[nH]1)c1ccccc1F [Example 40, 3-Chloro-N-(2-fluoro-phenyl)-5-[2-(pyridin-4-ylamino)-ethoxy]-N-[3-(1H-tetrazol-5-yl)-propyl]-benzamide]"
10,28 nM,"O=C(c1cc(Cl)cc(OCCNc2ccncc2)c1)N(CCOCC(O)CO)c1ccccc1 (stereo not drawn) [Example 41, 3-Chloro-N-[2-(2,3-dihydroxy-propoxy)-ethyl]-N-phenyl-5-[2-(pyridin-4-ylamino)-ethoxy]-benzamide]"
11,61 nM,"CC(C)(C)NC(=O)CCN(C(=O)c1cc(Cl)cc(OCCNc2ccncc2)c1)c1ccccc1 [Example 47, N-(2-tert-Butylcarbamoyl-ethyl)-3-chloro-N-phenyl-5-[2-(pyridin-4-ylamino)ethoxy]-benzamide]"
12,38 nM,"O=C(CCN(C(=O)c1cc(Cl)cc(OCCNc2ccncc2)c1)c1ccccc1)N1CCSCC1 [Example 49, 3-Chloro-N-(3-oxo-3-thiomorpholin-4-yl-propyl)-N-phenyl-5-[2-(pyridin-4-ylamino)-ethoxy]-benzamide]"
13,50 nM,"NC(=O)CCN(CC1CC1)C(=O)c1cc(Cl)cc(OCCNc2ccncc2)c1 [Example 55, N-(2-Carbamoyl-ethyl)-3-chloro-N-cyclopropylmethyl-5-[2-(pyridin-4-ylamino)-ethoxy]-benzamide]"
14,107 nM,"CC(C)N(CCC(N)=O)C(=O)c1cc(Cl)cc(OCCNc2ccncc2)c1 [Example 58, N-(2-Carbamoyl-ethyl)-3-chloro-N-isopropyl-5-[2-(pyridin-4-ylamino)-ethoxy]-benzamide]"
15,63 nM,"CC(C)N(CCCNS(C)(=O)=O)C(=O)c1cc(Cl)cc(OCCNc2ccncc2)c1 [Example 72, 3-Chloro-N-isopropyl-N-(3-methanesulfonylamino-propyl)-5-[2-(pyridin-4-ylamino)-ethoxy]-benzamide]"
16,22 nM,"O=C(c1cc(Cl)cc(OCCNc2ccncc2)c1)N(CCCn1cncn1)c1ccc(F)cc1 [Example 90, 3-Chloro-N-(4-fluoro-phenyl)-5-[2-(pyridin-4-ylamino)-ethoxy]-N-(3-[1,2,4]triazol-1-yl-propyl)-benzamide]"
17,34 nM,"O=C(c1cc(Cl)cc(OCCNc2ccncc2)c1)N(CCn1cncn1)C1CCCC1 [Example 91, 3-Chloro-N-cyclopentyl-5-[2-(pyridin-4-ylamino)-ethoxy]-N-(2-[1,2,4]triazol-1-yl-ethyl)-benzamide]"
18,15 nM,"O=C(c1cc(Cl)cc(OCCNc2ccncc2)c1)N(CCCCn1cncn1)C1CCCC1 [Example 92, 3-Chloro-N-cyclopentyl-5-[2-(pyridin-4-ylamino)-ethoxy]-N-(4-[1,2,4]triazol-1-yl-butyl)-benzamide]"
19,40 nM,"COCCN(C(=O)c1cc(Cl)cc(OCCNc2ccncc2)c1)C(C)C [Example 99, 3-Chloro-N-isopropyl-N-(2-methoxy-ethyl)-5-[2-(pyridin-4-ylamino)-ethoxy]-benzamide]"
20,140 nM,CC(C)N(CCc1noc(O)n1)C(=O)c1cc(Cl)cc(OCCNc2ccncc2)c1 [Example 109]
21,10 nM,"CC(C)CN(Cc1ccc(C(=O)O)cc1)C(=O)c1cc(Cl)cc(OCCNc2ccncc2)c1 [Example 118, 4-[({3-Chloro-5-[2-(pyridin-4-ylamino)-ethoxy]-benzoyl}-isobutyl-amino)-methyl]-benzoic acid]"
22,28 nM,"O=C(O)CCCCCN(CC1CCCCC1)C(=O)c1cc(Cl)cc(OCCNc2ccncc2)c1 [Example 124, 6-({3-Chloro-5-[2-(pyridin-4-ylamino)-ethoxy]-benzoyl}-cyclohexylmethyl-amino)-hexanoic acid]"
23,41 nM,"O=C(O)CCCN(C(=O)c1cc(Cl)cc(OCCNc2ccncc2)c1)C1CCC1 [Example 128, 4-({3-Chloro-5-[2-(pyridin-4-ylamino)-ethoxy]-benzol}-cyclobutyl-amino)-butyric acid]"
24,91 nM,"NC(=O)CCCCCN(Cc1ccco1)C(=O)c1cc(Cl)cc(OCCNc2ccncc2)c1 [Example 138, N-(5-Carbamoyl-pentyl)-3-chloro-N-furan-2-ylmethyl-5-[2-(pyridin-4-ylamino)-ethoxy]-benzamide]"
